# System: normal dogs
# Test: Oral administration of hBNP-021 versus native hBNP in normal dogs (randomized crossover)
# Conditions: dog, oral 350 ug/kg
# Procedure: Immediately prior to oral dosing, the powder (either hBNP or hBNP conjugate) was dissolved in a buffered formulation to a concentration of 1.25 mg/mL.
# MAP and blood samplings were repeated at 10, 30, 60, 120, 180, and 240 minutes after oral administration. Blood samples were collected in pre-chilled EDTA tubes and immediately placed on ice and centrifuged at −4° C. Plasma was stored at −80° C. until analysis. After extraction, plasma cANP, cBNP, hBNP and cGMP were assessed by radioimmunoassay as previously described (Saito, Y. et al. 1989; Kambayashi, Y. et al, 1990).
# Results are expressed as mean ±SEM. Data were assessed by 1-way ANOVA for comparisons within groups followed by post hoc Dunnett's test. Two-way ANOVA was used for comparisons between groups, followed by Bonferroni posttest. Student's paired t test was performed for single comparisons between groups (Graph-Pad Prism software 4.0). Statistical significance was accepted at a value of P<0.05.
smiles,measurement,value
"CC[C@H](C)[C@@H]1NC(=O)[C@H](CCCNC(=N)N)NC(=O)[C@H](CC(=O)O)NC(=O)[C@H](CCSC)NC(=O)[C@H](CCCCN)NC(=O)[C@H](CCCNC(=N)N)NC(=O)CNC(=O)[C@H](Cc2ccccc2)NC(=O)[C@@H](NC(=O)CNC(=O)[C@H](CO)NC(=O)CNC(=O)[C@H](CCC(N)=O)NC(=O)[C@@H](NC(=O)[C@H](CCSC)NC(=O)[C@H](CCCCN)NC(=O)[C@@H]2CCCN2C(=O)[C@@H](N)CO)C(C)C)CSSC[C@@H](C(=O)N[C@@H](CCCCN)C(=O)N[C@H](C(=O)N[C@@H](CC(C)C)C(=O)N[C@@H](CCCN=C(N)N)C(=O)N[C@@H](CCCN=C(N)N)C(=O)N[C@@H](Cc2cnc[nH]2)C(=O)O)C(C)C)NC(=O)CNC(=O)[C@H](CC(C)C)NC(=O)CNC(=O)[C@H](CO)NC(=O)[C@H](CO)NC(=O)[C@H](CO)NC(=O)[C@H](CO)NC1=O [Native hBNP, reference compound]",plasma hBNP after oral administration,detected in lower levels

# From patent US20080207505A1, “Bna Conjugates and Methods of Use” (priority 2005, published 2008)
